Experimental data published in paper PMC5693948, “Phosphatidylserine decarboxylase CT699, lysophospholipid acyltransferase CT775, and acyl-ACP synthase CT776 provide membrane lipid diversity to Chlamydia trachomatis” (Scientific Reports, 2017).

What was measured:
[1] = biological target: T1, CT775 (LpaT), lysophospholipid acyltransferase (Chlamydia trachomatis, UniProt O84780); test: NBD-PC formation, TLC, bee venom PLA2 digestion, microsomes; assay type: biochemical; settings: 1 µM NBD-C16-CoA, 10 µM 1-C16-GPC, pH 7.4, 30 °C; acyl acceptor
T1 construct: gene CT_775; expressed in E. coli BL21(DE3), membrane fraction (microsomes); cloning reported previously
T1 sequence (O84780 1-253): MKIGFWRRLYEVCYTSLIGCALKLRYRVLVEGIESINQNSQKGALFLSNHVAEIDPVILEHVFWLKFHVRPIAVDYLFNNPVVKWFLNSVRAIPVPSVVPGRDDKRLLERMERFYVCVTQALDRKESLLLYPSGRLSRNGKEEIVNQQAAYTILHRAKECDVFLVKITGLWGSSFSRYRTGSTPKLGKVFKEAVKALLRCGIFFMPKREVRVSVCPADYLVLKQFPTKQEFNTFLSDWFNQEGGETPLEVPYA

[2] = biological target: T2, hACSL6-iso2 (human long-chain acyl-CoA synthetase 6) (Homo sapiens, UniProt Q9UKU0); test: acyl-CoA / acyl-AMP formation; assay type: biochemical; settings: with fatty acid and CoASH
T2 construct: gene ACSL6; hexahistidine fusion, Ni-NTA partially purified, CHAPS lysis
T2 sequence (Q9UKU0 1-697): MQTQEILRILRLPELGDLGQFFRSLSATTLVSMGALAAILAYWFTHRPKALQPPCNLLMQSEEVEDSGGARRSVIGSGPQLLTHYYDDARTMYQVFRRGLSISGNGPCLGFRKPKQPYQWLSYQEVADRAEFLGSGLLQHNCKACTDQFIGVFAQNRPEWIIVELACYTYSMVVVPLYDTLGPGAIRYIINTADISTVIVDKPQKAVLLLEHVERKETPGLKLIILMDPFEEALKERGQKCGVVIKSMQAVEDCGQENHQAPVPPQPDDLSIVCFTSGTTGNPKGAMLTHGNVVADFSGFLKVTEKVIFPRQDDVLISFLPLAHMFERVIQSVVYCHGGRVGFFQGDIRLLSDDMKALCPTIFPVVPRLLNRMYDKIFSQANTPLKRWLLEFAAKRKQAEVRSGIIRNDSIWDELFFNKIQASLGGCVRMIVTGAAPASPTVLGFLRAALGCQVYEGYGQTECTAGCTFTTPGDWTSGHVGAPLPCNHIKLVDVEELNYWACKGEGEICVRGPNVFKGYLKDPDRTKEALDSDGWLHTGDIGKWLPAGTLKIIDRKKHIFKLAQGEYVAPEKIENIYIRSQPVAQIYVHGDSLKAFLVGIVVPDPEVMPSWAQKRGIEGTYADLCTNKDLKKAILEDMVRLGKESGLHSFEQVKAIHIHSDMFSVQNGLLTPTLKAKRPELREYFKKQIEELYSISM

[3] = biological target: T3, human LPCAT1 (hLPCAT1) (Homo sapiens, UniProt Q8NF37); test: competition with NBD-C16-CoA acylation of 1-C16-GPC, TLC fluorescence, microsomes; assay type: biochemical; settings: 0.5 µM NBD-C16-CoA, 20 µM 1-C16-GPC, 0.25-1.0 µM competitor, 30 °C; competing acyl donor
T3 construct: expressed in E. coli BL21(DE3), membrane fraction; cloning reported previously
T3 sequence (Q8NF37 1-534): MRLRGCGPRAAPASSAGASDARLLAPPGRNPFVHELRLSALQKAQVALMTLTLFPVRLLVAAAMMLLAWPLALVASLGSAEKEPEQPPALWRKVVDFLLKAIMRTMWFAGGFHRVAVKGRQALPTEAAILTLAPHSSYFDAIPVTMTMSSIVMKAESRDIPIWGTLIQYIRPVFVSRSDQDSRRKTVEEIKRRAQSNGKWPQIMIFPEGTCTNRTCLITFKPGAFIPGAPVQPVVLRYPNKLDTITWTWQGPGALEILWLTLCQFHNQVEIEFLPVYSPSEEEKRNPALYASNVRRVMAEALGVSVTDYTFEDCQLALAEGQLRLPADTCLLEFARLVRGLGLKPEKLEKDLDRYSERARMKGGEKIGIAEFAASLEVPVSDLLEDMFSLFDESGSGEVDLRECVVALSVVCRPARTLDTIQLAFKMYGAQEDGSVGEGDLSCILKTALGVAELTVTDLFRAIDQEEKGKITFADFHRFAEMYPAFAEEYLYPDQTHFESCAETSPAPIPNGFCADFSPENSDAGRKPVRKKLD

[4] = biological target: T2, hACSL6-iso2 (human long-chain acyl-CoA synthetase 6); test: competition with […]C18:1-CoA formation; assay type: biochemical; settings: 1 µM [14C]C18:1-OH, ATP, CoASH, 0.15 µM enzyme, 30 °C; competing substrate
[5] = biological target: T4, CT699 (PsdD), PS-decarboxylase (Chlamydia trachomatis, UniProt P0CD79); test: conversion of NBD-PS to NBD-PE, TLC fluorescence, E. coli lysate vs vector control; assay type: cell-based; settings: 2 µM NBD-PS, Tris pH 7.4, 37 °C; labelled compound
T4 construct: gene psd; full-length, pET28a, expressed in E. coli BL21(DE3), lysate
T4 sequence (P0CD79 1-259): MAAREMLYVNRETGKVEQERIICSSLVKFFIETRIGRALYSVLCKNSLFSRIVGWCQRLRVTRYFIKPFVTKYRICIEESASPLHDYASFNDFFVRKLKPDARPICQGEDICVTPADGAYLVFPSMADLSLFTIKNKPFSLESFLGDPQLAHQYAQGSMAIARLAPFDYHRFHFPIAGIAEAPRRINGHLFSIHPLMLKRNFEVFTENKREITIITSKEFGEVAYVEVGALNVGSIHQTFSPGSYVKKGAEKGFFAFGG
T4 sequence (P0CD79 260-301): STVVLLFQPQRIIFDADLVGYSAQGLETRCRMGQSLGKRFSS

[6] = biological target: T5, AasC (CT776), Chlamydia acyl-ACP synthase (Chlamydia trachomatis, UniProt O84781); test: […]-phospholipid formation from […]-palmitate in E. coli lysate, TLC; assay type: biochemical; settings: 5 µM [14C]C16-OH, 10 mM ATP, 20 mM MgCl2, pH 7.4, 30 °C; E. coli acyl carrier and acyltransferase in lysate
T5 construct: gene aas; full-length, pET28a, expressed in E. coli BL21(DE3), crude lysate
T5 sequence (O84781 1-537): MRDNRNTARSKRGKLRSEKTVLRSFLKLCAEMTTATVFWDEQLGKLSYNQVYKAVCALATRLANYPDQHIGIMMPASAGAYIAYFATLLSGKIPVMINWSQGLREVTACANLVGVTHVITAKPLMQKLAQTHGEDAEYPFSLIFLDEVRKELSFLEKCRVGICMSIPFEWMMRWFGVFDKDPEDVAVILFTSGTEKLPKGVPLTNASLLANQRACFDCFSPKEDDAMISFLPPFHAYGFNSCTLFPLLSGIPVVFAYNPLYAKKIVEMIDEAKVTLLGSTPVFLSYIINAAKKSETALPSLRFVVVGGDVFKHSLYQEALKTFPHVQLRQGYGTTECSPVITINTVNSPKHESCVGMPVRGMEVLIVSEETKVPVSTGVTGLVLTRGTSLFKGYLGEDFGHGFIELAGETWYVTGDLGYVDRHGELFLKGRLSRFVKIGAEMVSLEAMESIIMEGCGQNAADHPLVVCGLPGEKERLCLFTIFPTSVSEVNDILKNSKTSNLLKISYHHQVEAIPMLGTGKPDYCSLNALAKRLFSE

[7] = biological target: T5, AasC (CT776), Chlamydia acyl-ACP synthase; test: as above; assay type: biochemical; settings: 5 µM [14C]C16-OH, 10 mM ATP, 20 mM MgCl2, pH 7.4, 30 °C; E. coli acyl carrier and acyltransferase in lysate; remark: listed apart in the source

## CCCCCCCCCCCCCCCC(=O)OC[C@@H](O)COP(=O)([O-])OCC[N+](C)(C)C [1-C16-sn-glycerol-3-P-choline, 1-palmitoyl-2-hydroxy-sn-glycero-3-phosphocholine]
[1]
  NBD-PC formation, TLC, bee venom PLA2 digestion, microsomes: NBD-acyl group had been transferred by CT775 to the sn2 position of the 1-C16-GPC isomer

## Nc1ncnc2c1ncn2[C@@H]1O[C@H](COP(=O)(O)OP(=O)(O)OP(=O)(O)O)[C@@H](O)[C@H]1O [ATP]
[2]
  acyl-CoA / acyl-AMP formation: In the presence of both ATP and CoASH, acyl-CoA is formed from fatty acids

## CCCCCCCC/C=C\CCCCCCCC(=O)SCCNC(=O)CCNC(=O)[C@H](O)C(C)(C)COP(=O)(O)OP(=O)(O)OC[C@H]1O[C@@H](n2cnc3c(N)ncnc32)[C@H](O)[C@@H]1OP(=O)(O)O [C18:1-CoA]
[3]
  % of activity without competitor: MeC18-CoA was a stronger competitor than C18:1-CoA

## CC(C)CCCCCCCCCC(=O)O [MeC12-OH]
[4]
  competition at 10 μM: The shorter chain MeC12-OH also competed but not as efficiently as MeC18-OH

## CC(C)CCCCCCCCCCCCCCCC(=O)SCCNC(=O)CCNC(=O)[C@H](O)C(C)(C)COP(=O)(O)OP(=O)(O)OC[C@H]1O[C@@H](n2cnc3c(N)ncnc32)[C@H](O)[C@@H]1OP(=O)(O)O [MeC18-CoA]
[3]
  % of activity without competitor: NBD-C16-CoA to 1-acyl-GPC by hLPCAT1 was strongly reduced in the presence of MeC18-CoA

## CC(C)CCCCCCCCCCCCCCCC(=O)O [MeC18-OH]
[4]
  competition at 10 μM: this long-chain odd fatty acid was as good a substrate for hACSL6 as C18:1-OH

## CCCCCCCCCCCCCCCC(=O)OC[C@H](COP(=O)(O)OC[C@H](N)C(=O)O)OC(=O)CCCCCNc1ccc([N+](=O)[O-])c2nonc12 [NBD-PS, 1-palmitoyl-2-(6-[(7-nitro-2-1,3-benzoxadiazol-4-yl)amino]hexanoyl)-sn-glycero-3-phosphoserine]
[5]
  conversion of NBD-PS to NBD-PE, TLC fluorescence, E. coli lysate vs vector contr: CT699 was active and able to convert fluorescent NBD-PS into NBD-PE

## CN(CCOc1ccc(CC2SC(=O)NC2=O)cc1)c1ccccn1 (stereo not drawn) [rosiglitazone G]
[6]
  % inhibition at 100 μM: both drugs had a significant inhibitory effect on FA incorporation in the presence of the AasC

## CCC/C=C/C/C=C/C=C/C=N/NN=O [triacsin C]
[7]
  % inhibition at 5 μM: both drugs had a significant inhibitory effect on FA incorporation in the presence of the AasC
